According to patent US20240398843A1, “GLYCYRRHIZIN-BRANCHED POLYETHYLENE GLYCOL CONJUGATE FOR TREATING CANCER” (IUCF-HYU (INDUSTRY-UNIVERSITY COOPERATION FOUNDATION …, priority 2021, published 2024):

Assays:
red blood cells = experiment: In vitro blood hemolysis; conditions: 0.2 to 1 mg/mL, 37° C., 1 hour
Description: 1 to 2 mL of blood was put into a 2 mL tube, filled with PBS, and centrifuged at 3,000 rpm for 2 minutes. The supernatant was removed, the vial was filled again with PBS, and centrifuged, and this process was repeated 2 to 3 times. 20 μL of a red blood pellet was dispensed into a 1.5 mL tube. DW, for example, 80% DW/PBS, 60% DW/PBS, 40% DW/PBS, 20% DW/PBS, or PBS was added to a control without separate material treatment, and the volumes was adjusted to 1.5 mL. In the experimental group, 1 mL of a bPEG-GL (3.6 mg/mL, 2.88 mg/mL, 2.16 mg/mL, 1.44 mg/mL, 0.72 mg/mL; GL equivalent concentration) solution was added to each tube.
The tubes were left in a 37° C. water bath for 1 hour and then centrifuged at 800 rpm for 5 minutes.

HepG2 cells [1] = experiment: Cell cycle arrest assay (PI, FACS); type: cell-based; conditions: 24 hours
Description: HepG2 cells were seeded in a 6-well plate at 4×10^5 cells/well and cultured (3 wells for each treated group). The cells were classified into a control (con; untreated group), GL-treated groups (250 and 500 μg/mL), bPEG-GL-treated groups (GL equi 250 and 500 μg/mL), and a bPEG (GL equi 500 μg/mL)-treated group, treated with corresponding materials, and cultured for 24 hours. After the cells were recovered and counted, 1×10^6 cells were obtained for each experimental group. The cells were washed with PBS and fixed with 70% ethanol (cell membrane disruption). The cells were treated with 50 μL of ribonuclease A (100 μg/mL) and 200 μL of propidium iodide (PI; 50 μg/mL). The cells were washed and suspended in 500 μL of PBS, and then FACS was performed.

[2] = In vivo distribution (organ fluorescence, FOBI); conditions: FITC-labelled, tail vein, C57BL mouse
Description: Each of GL-FITC and bPEG-GL-FITC was dissolved in 1.5 mL of PBS at a concentration of 125 μg/mL based on GL. 100 μL each of the GL-FITC and bPEG-GL-FITC solutions was injected into the tail vein of a C57BL mouse. When a preset time (10 min, 30 min, 3 hr, 6 hr, and 24 hr) passed, the mice were sacrificed, organs were removed, and then fluorescence images were confirmed using FOBI.

HepG2 cells [3] = experiment: Wound healing assay; type: cell-based; conditions: HepG2, 500 μg/mL GL or GL equivalent, 24-hour culture
Description: HepG2 cells were seeded in a 6-well plate at 3×10^5 cells/well and cultured until 100% confluence. When the well was filled with cells, a wound was made by drawing a line in the center of the well using a 200 μL micropipette tip. The cells were washed with PBS, and treated with each of 500 μg/mL of GL, 500 μg/mL of bPEG-GL, which is a GL equivalent concentration, and a bPEG solution at the same amount of bPEG that dissolved in 500 μg/mL of bPEG-GL. After 24-hour culture, the width of the wound was confirmed. […] The cell migration rate was calculated according to Equation 1.
Rate of cell migration(RM)=(Wi−Wf)/t [Equation 1] • (Wi=initial wound width, Wf=final wound width, t=duration of migration)

[4] = In vivo pharmacokinetics (plasma, HPLC); conditions: intravenous, mouse, tail vein, 5 mg/kg GL
Description: 5 mg/kg of GL or 18 mg/kg of bPEG-GL (a GL equivalent amount of the GL-administered group) was injected into the tail vein of a mouse. The mouse was sacrificed at a designated time point after injection and blood was collected through cardiac puncture. The blood collection times were as follows: 1, 3, 5, 10, 30, 60, 120, 150, 360, 720, 1080, and 1440 min (n=4 at each time). The collected blood was centrifuged at 3000 rpm and 4° C. for 20 minutes. Only the plasma, which is the supernatant, was recovered, and 50 μL of the plasma and 100 μL of methyl alcohol (HPLC grade) were mixed and vortexed for 10 minutes. Afterward, the resulting product was centrifuged at 10000 g for 10 minutes. 100 μL of the supernatant was mixed with 900 μL of a mobile phase, and the resulting mixture was filtered using a 0.45 μm syringe filter.
The mobile phase consisted of methanol, acetonitrile, water, and acetic acid in a ratio of 55:23.7:19.2:0.68. The standard curve required for HPLC analysis was prepared as follows: each of 1 mg of GL and 1.8 mg of bPEG-GL was dissolved in 1 mL of the mouse serum. […] HPLC was performed on the blood samples and various concentrations of the GL/serum solutions using a C8 reverse column: flow rate: 1 mL/min; column temperature: 35° C.; UV absorbance: 251 nm; and sample injection amount: 20 μL.

[5] = Dynamic light scattering (DLS) particle size, incl. shielding effect check in 10% FBS DW; type: physicochemical; conditions: for DLS size, first listed population / DLS size, second listed population / proportion of first listed population / proportion of second listed population: 10% FBS DW
Excerpt: When bPEG was conjugated, a stabilized nano size of approximately 300 nm was observed (FIG. 6).

HepG2 cells [6] = experiment: Apoptosis assay (annexin V/PI, FACS); type: cell-based; conditions: 24 hours
Description: HepG2 cells were seeded in a 60 mm well plate at 2×10^5 cells/well and cultured (3 wells for each treatment group). The cells were classified as follows, treated with corresponding materials, and cultured for 24 hours: Control (con; untreated group), GL-treated groups (250, 500, and 1,000 μg/mL), bPEG-GL-treated groups (900, 1,800, and 3,600 μg/mL; GL equivalent concentrations of 250, 500, and 1,000 μg/mL), and bPEG-treated groups (1,300 and 2,600 μg/mL; bPEG-GL equivalent concentrations of 1,800 and 3,600 μg/mL).
After the culture, the medium was aspirated to remove the treated material, and the cells were washed twice with a cell-staining buffer. After the cells were recovered and counted, 5×10^5 cells were obtained for each experimental group. The cell culture solution was centrifuged to remove the supernatant, and then the cells were suspended in 100 μL of annexin V-binding buffer. The cell suspension was transferred to an FACS tube, and 5 μL of annexin V and 10 μL of PI solution were added. Subsequently, the FACS tube was left in a dark room at room temperature for 15 minutes. 400 μL of PBS was added to each FACS tube and analyzed by FACS in appropriate settings.

- half-life [4]: ~4 min
- size by dynamic light scattering particle size analyzer [5]: 50 nm
- DLS size, first listed population ([5]; 30 min): 159.7 nm
- DLS size, second listed population ([5]; 30 min): 10.38 nm
- proportion of first listed population ([5]; 30 min): 75.50%
- proportion of second listed population ([5]; 30 min): 24.15%
- DLS size, first listed population ([5]; 1 h): 54.5 nm
- DLS size, second listed population ([5]; 1 h): 295.03 nm
- proportion of first listed population ([5]; 1 h): 47.83%
- proportion of second listed population ([5]; 1 h): 31.06%
- size of newly observed particles ([5]; DW with 10% FBS, after 1 hour): approximately 300 nm
SMILES: CC1(C)[C@@H](O[C@H]2O[C@H](C(=O)O)[C@@H](O)[C@H](O)[C@H]2O[C@@H]2O[C@H](C(=O)O)[C@@H](O)[C@H](O)[C@H]2O)CC[C@]2(C)[C@H]3C(=O)C=C4[C@@H]5C[C@@](C)(C(=O)O)CC[C@]5(C)CC[C@@]4(C)[C@]3(C)CC[C@@H]12 [GL, Glycyrrhizin]
- toxicity to blood cells (hemolysis) (red blood cells): did not exhibit toxicity to blood cells
- cell cycle phase compared to control (HepG2 cells [1]; HepG2, 250 and 500 μg/mL (GL equivalent)): cell cycles remained in the G0/G1 phase compared to the control
- concentration dependence of cell cycle arrest (HepG2 cells [1]; HepG2, 500 vs 250 μg/mL): higher cell cycle arrest effects at 500 μg/mL, compared to that at 250 μg/mL
- organ fluorescence ([2]; 10 minutes after injection): fluorescence was visible in the liver and kidney
- organ fluorescence ([2]; later time points up to 24 hr): no fluorescence was observed in the corresponding organs at later time points
- width of wound / cell migration (HepG2 cells [3]): inhibitory effect on cell migration
- proportion of apoptotic cells (HepG2 cells [6]; HepG2, GL equivalent concentration of 500 μg/mL): 9.63%
- proportion of apoptotic cells (HepG2 cells [6]; HepG2, GL equivalent concentration of 1 mg/mL): 10.86%
